In DBAASP:
Values after ≈ are worked out from the molar mass of the structure shown.

How the values were obtained:
Test in all cases: ≥ marks a high value that may be exact or a test limit, other limits are often not marked, values filed in µg/mL are converted to µM
[1] = tested on: Salmonella enterica subsp. enterica serovar Infantis
Escherichia coli JW0013 = tested on: Escherichia coli JW0013
Escherichia coli = tested on: Escherichia coli
Escherichia coli MC1041 = tested on: Escherichia coli MC1041
[2] = tested on: Escherichia coli JW2778 ΔygdD
[3] = tested on: Salmonella typhimurium SL1344
[4] = tested on: Salmonella enterica subsp. enterica serovar Newport
[5] = tested on: Escherichia coli JW0368 ΔsbmA
[6] = tested on: Salmonella enterica serovar Tennessee
[7] = tested on: Salmonella enterica subsp. enterica serovar Enteritidis MH91989
Escherichia coli JJ2489 = tested on: Escherichia coli JJ2489
Escherichia coli J2210 = tested on: Escherichia coli J2210

SMILES: CC(C)C[C@H](NC(=O)[C@H](CCCN=C(N)N)NC(=O)[C@@H]1CCCN1C(=O)[C@H](Cc1cnc[nH]1)NC(=O)[C@@H]1CCCN1C(=O)[C@@H]1CCCN1C(=O)[C@H](CCCN=C(N)N)NC(=O)[C@@H]1CCCN1C(=O)[C@H](CCC(N)=O)NC(=O)[C@@H]1CCCN1C(=O)[C@H](CCCN=C(N)N)NC(=O)[C@H](Cc1ccc(O)cc1)NC(=O)[C@@H](NC(=O)[C@@H]1CCCN1C(=O)[C@H](CCCCN)NC(=O)[C@H](CC(N)=O)NC(=O)[C@H](CC(N)=O)NC(=O)CN)C(C)C)C(=O)O [GNNKPVYRPQPRPPHPRL]
- MIC [1]: 0.024 µM (≈ 0.051 µg/mL)
- MIC (Escherichia coli JW0013): 0.012 µM (≈ 0.0255 µg/mL)
- MIC (Escherichia coli): 0.048 µM (≈ 0.102 µg/mL)
- MIC (Escherichia coli MC1041): 0.024 µM (≈ 0.051 µg/mL)
- MIC [2]: 0.024 µM (≈ 0.051 µg/mL)
- MIC [3]: 0.034 µM (≈ 0.0722 µg/mL)
- MIC [4]: 0.017 µM (≈ 0.0361 µg/mL)
- MIC [5]: 0.096 µM (≈ 0.204 µg/mL)
- MIC [6]: 0.024 µM (≈ 0.051 µg/mL)
- MIC [7]: 0.031 µM (≈ 0.0658 µg/mL)
- MIC (Escherichia coli JJ2489): 0.034 µM (≈ 0.0722 µg/mL)
- MIC (Escherichia coli J2210): 0.034 µM (≈ 0.0722 µg/mL)
